According to patent US3957812A, “Derivatives of 2-phenoxyacetamido-5-nitro-thiazole” (priority 1973, dated 1976):
≈ marks a conversion by molar mass, not a printed value. Like-named read-outs stand apart in the source and are kept apart here.

What was measured:
Hymenolepis nana = assay: Test for anthelminthics, cestodes (Hymenolepis nana); format: in vivo; parameters: Percentage of activity: concentration or dose not given beside the values; conditions: number of subjects 10
Source text: (§1) Biological tests have been performed with a great number of compounds of formula (I) using the following techniques: (1) Test for amoebicidal activity described by R. CAVIER, Ann. pharm. franc., 1960, 18, pages 583-589 and by R. CAVIER, and J. CENAC, Bull. Soc. Path. exot. 1972, 65, pages 399-404. (2) Test for trichomonacidal activity described by R. CAVIER and P. BUOT, Ann. pharm. franc., 1964, 22, pages 211-216 and by R. CAVIER and J. CENAC, Semaine des Hopitaux, 1972, 48, pages 391-394). (3) Tests for anthelminthics described for nematodes (such as Syphacia obvelata) by R. CAVIER, Bull. Soc. Path. exot., 1962, 55, pages 412-417 and, for cestodes (such as Hymenolepis nana), by R. CAVIER, Ann. pharm. franc., 1956, 14, pages 545-552 and by R. CAVIER and M. J. NOTTEGHEM, Ann. pharm. franc. 1968, 28, pages 603-606.

Syphacia obvelata = format: in vivo; parameters: Percentage of activity: concentration or dose not given beside the values; conditions: for Number of dead subjects (+): in vivo
Source text: as §1

[1] = system: Shigella dysenteriae 3410; assay: Determination of bacteriostatic doses, S. 3410; format: cell-based; conditions: for MIC: Shigella dysenteriae, 3410, 24 h, read-out: bacteriostatic dose, S. 3410
Experimental: (§2) (5) Method for determining bacteriostatic doses
(§3) A common gelose medium of the following composition is used.
(§4) The pH is adjusted at 7.2 and the medium is sterilized during 30 minutes at 120°C.
(§5) The same method as for the determination of fungistatic doses is used, except that the various dilutions of each compound are added to the gelose medium, the solvent concentration never exceeding 3%. Tubes containing […] of the compounds per ml are prepared.
(§6) Cultures of each strain in the liquid medium are prepared and, after 24 hours of incubation at 37°C, dilutions of these cultures in ordinary broth are prepared as follows:
Shigella dysenteriae 3410
(§7) By means of these dilutions, scratches of a length of 4 to 5 cm are made on the previously dried surface of the gelose medium to which various amounts of the compound to be tested have been added.

[2] = system: Escherichia coli OIII B 4; assay: Determination of bacteriostatic doses, O.III B 4; format: cell-based; conditions: gelose medium, 37°C, 24 hours
Experimental: as §2, §3, §4, §5, §6
Escherichia coli OIII B 4
as §7

Enterococcus 9790 = assay: Determination of bacteriostatic doses, E. 9790; format: cell-based; conditions: gelose medium, 37°C, 24 hours; for MIC: Enterococcus, 9790, read-out: bacteriostatic dose, E. 9790
Experimental: as §2, §3, §4, §5, §6, §7

Epidermo flocosum = assay: Determination of fungistatic doses, E.f.; format: cell-based; conditions: liquid Sabouraud medium, 25°C, 10 days; for MIC: 240 h, read-out: fungistatic dose, E.f.
Experimental: (§8) (4) Method for determining fungistatic doses:
(§9) A liquide Sabouraud medium having the following composition is used:
(§10) If necessary, the pH is adjusted at 6.4 and the medium is sterilized.
(§11) The compounds are dissolved in dimethylformamide to which polyethylene glycol is sometimes added. From the mother-liquor, successive diluted solutions are prepared in the liquid Sabouraud medium, so as to obtain concentrations of 1, 3, 10, 30 100 and […] per ml. For the first dilution, one should not add more than 10% of the mother-liquor to the Sabouraud medium. Subsequently 9 ml per tube of the various solutions in the liquid Sabouraud medium are distributed.
(§12) Reference tubes corresponding to the highest solvent concentrations are also prepared.
(§13) Cultures of the various dermatophyte strains on Sabouraud gelose medium are prepared. From 1 to 2 months old cultures, homogeneous suspensions of said cultures in the liquid Sabouraud medium are prepared, the obtained suspensions being stirred in the presence of glass pearls having a light transmission of about 40%.
(§14) One drop of said suspension is introduced in the tubes containing the various concentrations of the compound to be tested.
(§15) at 25°C ± 2°C in the dark
(§16) 10 days of incubation for dermatophytes.

Microsporum felineum = assay: Determination of fungistatic doses, M.f.; format: cell-based; conditions: liquid Sabouraud medium, 25°C, 10 days
Experimental: as §8, §9, §10, §11, §12, §13, §14, §15, §16

[3] = system: Proteus morganii IP 53185; assay: Determination of bacteriostatic doses, P. morg.; format: cell-based; conditions: gelose medium, 37°C, 24 hours
Experimental: as §2, §3, §4, §5, §6
Proteus morganii IP 53185
as §7

[4] = system: Pseudomonas aeruginosa 8194; assay: Determination of bacteriostatic doses, Pseudo 8194; format: cell-based; conditions: gelose medium, 37°C, 24 hours
Experimental: as §2, §3, §4, §5, §6
Pseudomonas aeruginosa 8194
as §7

[5] = system: Trichophyton mentagrophytes; assay: Determination of fungistatic doses, T.m.; format: cell-based; conditions: liquid Sabouraud medium, 25°C, 10 days; for MIC: Trichophyton mentagrophytes, 240 h, read-out: fungistatic dose, T.m
Experimental: as §8, §9, §10, §11, §12, §13, §14, §15, §16

Entomoeba dysenteriae = assay: Test for amoebicidal activity; format: cell-based
Source text: as §1

[6] = system: Staphylococcus aureus 209 P; assay: Determination of bacteriostatic doses, S. 209 P; format: cell-based; conditions: gelose medium, 37°C, 24 hours; for MIC: Staphylococcus aureus, 209P, read-out: bacteriostatic dose, S. 209 P
Experimental: as §2, §3, §4, §5, §6
Staphylococcus aureus 209 P
as §7

in vivo [7] = conditions: mouse, ip, intraperitoneal administration to mice, read-out: acute toxicity (LD50)
in vivo [8] = conditions: mouse, po, orally administered to mice
Experimental: The LD50 of compounds PH 6099 and 5927, when orally administered to mice, is of more than 4000 mg/kg.

Microsporum audouini = assay: Determination of fungistatic doses, M.a.; format: cell-based; conditions: 240 h, liquid Sabouraud medium, 25°C, 10 days, read-out: fungistatic dose, M.a.
Experimental: as §8, §9, §10, §11, §12, §13, §14, §15, §16

Proteus vulgaris 8181 = assay: Determination of bacteriostatic doses, 8181; format: cell-based; conditions: gelose medium, 37°C, 24 hours, strain 8181, read-out: bacteriostatic dose, (8181) printed in column P. morg.
Experimental: as §2, §3, §4, §5, §6, §7

Trichomonas vaginalis = assay: Test for trichomonacidal activity; format: cell-based; conditions: Trichomonas vaginalis; read-out: Trichomonas vaginalis starting activity
Source text: as §1

Trichophyton rubrum = assay: Determination of fungistatic doses, T.r.; format: cell-based; conditions: 240 h, liquid Sabouraud medium, 25°C, 10 days, read-out: fungistatic dose, T.r.
Experimental: as §8, §9, §10, §11, §12, §13, §14, §15, §16

[9] = Syphacia obvelata, number of subjects 10

Row | Compound | Number of dead subjects (+) (Hymenolepis nana) | Number of subjects from which the parasite has been eradicated (D) (Hymenolepis nana) | Percentage of activity (Hymenolepis nana) [%] | Percentage of activity (Syphacia obvelata; [9]) [%] | Number of dead subjects (+) (Syphacia obvelata) | MIC (Epidermo flocosum) [µg/mL] | MIC [5] [µg/mL] | MIC [6] [µg/mL] | further results
1 | 2-(2'-trifluoromethyl-3'-methylphenoxyacetamido)-5-nitrothiazole [PH 6306] | 0 | 0 | 0 | 0 | 0 | – | – | – | Number of subjects from which the parasite has been eradicated (D) (Syphacia obvelata; [9]): 0; bacteriostatic dose, S. 3410 ([1]; gelose medium, 37°C, 24 hours): 0 µg/mL; bacteriostatic dose, O.III B 4 [2]: 0 µg/mL; bacteriostatic dose, E. 9790 (Enterococcus 9790): 100 µg/mL; fungistatic dose, E.f. (Epidermo flocosum): 30 µg/mL; fungistatic dose, M.f. (Microsporum felineum): 10 µg/mL; bacteriostatic dose, P. morg. [3]: 0 µg/mL; bacteriostatic dose, Pseudo 8194 [4]: 0 µg/mL; fungistatic dose, T.m [5]: 1 µg/mL; Entomoeba dysenteriae starting activity (Entomoeba dysenteriae): 5 mμ/ml; bacteriostatic dose, S. 209 P [6]: 10 µg/mL
2 | O=C(COc1ccc(Cl)cc1)Nc1ncc([N+](=O)[O-])s1 [PH 5927] | 0 | 0 | 0 | 30 | 0 | 10 (≈ 31.9 µM) | 30 (≈ 95.6 µM) | 100 (≈ 319 µM) | LD50 (in vivo [7]): > 4500 mg/kg; LD50 (in vivo [8]): > 4000 mg/kg
3 | O=C(COc1cc(Cl)ccc1Cl)Nc1ncc([N+](=O)[O-])s1 [PH 6159] | 0 | 2 | 20 | 0 | 0 | – | 30 (≈ 86.2 µM) | – | –
4 | O=C(COc1c(F)c(F)c(F)c(F)c1F)Nc1ncc([N+](=O)[O-])s1 [PH 6168] | 0 | 2 | 20 | 0 | 0 | 1 (≈ 2.71 µM) | 1 (≈ 2.71 µM) | 10 (≈ 27.1 µM) | MIC (Microsporum audouini): 3 µg/mL (≈ 8.13 µM); MIC [1]: 300 µg/mL (≈ 813 µM); MIC ([2]; Escherichia coli, OIIIB4, read-out: bacteriostatic dose, O.III B 4): 300 µg/mL (≈ 813 µM); MIC (Enterococcus 9790): 10 µg/mL (≈ 27.1 µM); MIC (Proteus vulgaris 8181): 300 µg/mL (≈ 813 µM)
5 | Cc1cc(OCC(=O)Nc2ncc([N+](=O)[O-])s2)ccc1Cl [PH 6314] | 0 | 0 | 0 | 0 | 0 | – | – | 3 (≈ 9.15 µM) | minimal effective concentration (Trichomonas vaginalis): 2.5 µg/mL
6 | Cc1cc(OCC(=O)Nc2ncc([N+](=O)[O-])s2)c(C(C)C)cc1Cl [PH 6099] | 0 | 4 | 40 | 20 | 0 | – | – | 3 (≈ 8.11 µM) | minimal effective concentration (Trichomonas vaginalis): 100 µg/mL; MIC (Microsporum audouini): 0.1 µg/mL (≈ 0.27 µM); MIC [1]: 300 µg/mL (≈ 811 µM); LD50 (in vivo [7]): ~200 mg/kg; MIC (Enterococcus 9790): 300 µg/mL (≈ 811 µM); LD50 (in vivo [8]): > 4000 mg/kg; MIC (Trichophyton rubrum): 2 µg/mL (≈ 5.41 µM)
7 | O=C(COc1ccc(Cl)cc1Cl)Nc1ncc([N+](=O)[O-])s1 [PH 6091] | 0 | 3 | 30 | 20 | 0 | 1 (≈ 2.87 µM) | 3 (≈ 8.62 µM) | 3 (≈ 8.62 µM) | MIC (Microsporum felineum; Microsporum, 240 h, read-out: fungistatic dose, M.f.): 30 µg/mL (≈ 86.2 µM)
8 | Cc1cc(Cl)c(OCC(=O)Nc2ncc([N+](=O)[O-])s2)cc1C [PH 6305] | 0 | 0 | 0 | 10 | 0 | – | – | – | –
9 | O=C(COc1ccc(F)cc1)Nc1ncc([N+](=O)[O-])s1 [PH 6160] | 0 | 0 | 0 | 0 | 0 | 1 (≈ 3.36 µM) | 4 (≈ 13.5 µM) | 10 (≈ 33.6 µM) | MIC (Microsporum audouini): 4 µg/mL (≈ 13.5 µM); MIC [1]: 100 µg/mL (≈ 336 µM); MIC (Trichophyton rubrum): 4 µg/mL (≈ 13.5 µM)
10 | O=C(COc1cc(C(F)(F)F)cc(C(F)(F)F)c1)Nc1ncc([N+](=O)[O-])s1 [PH 6167] | 0 | 7 | 70 | 40 | 0 | 1 (≈ 2.41 µM) | 1 (≈ 2.41 µM) | 3 (≈ 7.22 µM) | MIC (Enterococcus 9790): 10 µg/mL (≈ 24.1 µM)
11 | O=C(COc1ccc(Br)cc1)Nc1ncc([N+](=O)[O-])s1 [PH 6092] | 0 | 1 | 10 | 10 | 0 | – | 100 (≈ 279 µM) | 10 (≈ 27.9 µM) | minimal effective concentration (Trichomonas vaginalis): 100 µg/mL
